Test results taken from PubChem BioAssay (NCI).
Where “and” joins values, the source holds several entries; their conditions need not be identical. Equal entries are not always repeated.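 Dose response: 5 concentrations. Exposure: 48 h. Format: 96-well plates. Endpoint: linear interpolation; highest concentration if not reached. Here, GI50 denotes the concentration required for 50% inhibition of growth. TGI denotes the concentration required for complete inhibition of growth.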

Experiments:
Test in all cases: NCI anticancer screen, dose series, 48 h
[1] = tested on: NCI-H460 lung
[2] = tested on: MOLT-4 leukemia
[3] = tested on: SN12C renal
[4] = tested on: HOP-62 NSCLC
[5] = tested on: SF-539 CNS
[6] = tested on: HCC-2998 colon
[7] = tested on: CCRF-CEM leukemia
[8] = tested on: MALME-3M melanoma
[9] = tested on: DU-145 prostate
[10] = tested on: MCF7 breast

SMILES	TGI [1]	TGI [2] [µM]	TGI [3]	TGI [4]	TGI [5]	TGI [6] [µM]	TGI [7] [µM]	TGI [8] [µM]	GI50 [1]	GI50 [2] [µM]	GI50 [3]	GI50 [9] [µM]	TGI [9] [µM]	GI50 [10] [µM]	TGI [10] [µM]	GI50 [4]	GI50 [5]	GI50 [6] [µM]	GI50 [7] [µM]	GI50 [8]
CCOC(=O)N1C/C(=C\c2ccc(N(C)C)cc2)C(=O)/C(=C/c2ccc(N(C)C)cc2)C1	> 100 µM	> 100	> 100 µM	> 100 µM	> 100 µM	> 100	> 100	> 100												
Nc1ncnc2c1ncn2C1(CO)OC(CO)C(O)C1O (stereo not given)	> 100 µM	> 100	> 100 µM	> 100 µM		> 100	> 100	> 100												
CC[P+](C)(C)CC	> 100 µM	> 100	> 100 µM	> 100 µM	> 100 µM	> 100	> 100	> 100												
Cc1ccc(C)c(NC(=O)C(=O)C(C2C(C)CC(=O)C2CC(=O)O)[N+](=O)[O-])c1 (stereo not given)	> 100 µM	> 100	> 100 µM	> 100 µM	> 100 µM	> 100	> 100	> 100												
O=C(N/N=C/c1coc2ccc(Cl)cc2c1=O)c1cc(O)c(O)c(O)c1	> 100 µM	61.6	65.4 µM	89.4 µM	62.7 µM	35.3	> 100		> 100 µM	13.7	24.1 µM	30.7	> 100	75.7	> 100	38.8 µM	23.6 µM	15.9	33.2	
O=S(=O)([O-])c1ccc(C=Nc2ccccc2)c([O-])c1.O=S(=O)([O-])c1ccc(C=Nc2ccccc2)c([O-])c1.[Co+2]		> 100	> 100 µM		> 100 µM	> 100	> 100	> 100		7.71	18.8 µM						32.6 µM	> 100	11.7	99.1 µM
CCCOC(=O)C1C(c2ccc(OC)cc2)NC(c2ccc(OC)cc2)C(C(=O)OCCC)S1(=O)=O (stereo not given)		> 100	> 100 µM	> 100 µM	> 100 µM	> 100		> 100		> 100	> 100 µM					> 100 µM	> 100 µM	> 100		> 100 µM
CN(C)Cc1nsc(N(C)C)n1	> 100 µM		> 100 µM	> 100 µM	> 100 µM			> 100					> 100		> 100					
COc1ccc(C)cc1-c1ccc(-c2cc(C)ccc2OC)o1	> 100 µM	> 100	> 100 µM	> 100 µM	> 100 µM	> 100	> 100	> 100												
COc1ccc(C2=NC(CO)[C@H](c3ccccc3)O2)cc1OC (stereo not given in full)	> 100 µM	> 100	> 100 µM	> 100 µM	> 100 µM	> 100	> 100	> 100												
COC(=O)C(C(=O)C(=O)Nc1nc2ccc(OC)cc2s1)c1cnc2ccccc2n1 (stereo not given)	> 100 µM	> 100	> 100 µM	> 100 µM	> 100 µM	> 100		> 100												
CCOC(=O)c1nc2sc(Cl)cn2c1/C=N/N=C(N)N	> 59.6 µM	> 100	57.6 µM	40.4 µM	> 100 µM		> 64.2	37.9	28.2 µM	22.8	24 µM	24.8	> 67.5	27.5	> 58.7	19.1 µM	42.7 µM		25.2	17.8 µM
O=S(=O)(c1ccccc1)C1(C2(S(=O)(=O)c3ccccc3)CCN=N2)CCN=N1 (stereo not given)	> 100 µM	> 100	> 100 µM		> 100 µM	> 100	> 100	> 100												
NNC(=O)C(=O)N/N=C1\CCCC1C(=O)CCC(=O)Nc1cccc(Cl)c1 (stereo not given)	> 100 µM	> 100	> 100 µM	> 100 µM		> 100	> 100	> 100												
Cc1c(C(=O)Nc2ccc(Oc3ccnc4cc(OCC(C)(C)O)ccc34)c(F)c2)c(=O)n(-c2ccccc2)n1C				> 100 µM	> 100 µM	> 100										19.4 µM	1.46 µM	> 100		
O=C1CC[C@@H]2[C@H]3CCC(=O)c4c3c(c3cccc(O)c3c4O)O[C@@]23C(=O)c2cccc(O)c2C(O)=C13	> 100 µM	> 100	> 100 µM	> 100 µM	> 100 µM				> 100 µM	> 100	61.4 µM	> 100	> 100	> 100	> 100	> 100 µM	> 100 µM			
Cc1cc(N)c2cc(NC(=O)/C=C\c3ccccc3Cl)ccc2n1	2.7 µM	2.54	2.69 µM	1.73 µM	3.07 µM	1.74	0.448	3.89	1.19 µM	1.09	1.36 µM	1.45	2.87			0.725 µM	1.69 µM	0.485	0.204	2.05 µM
Cc1nc2sc(C(=O)Nc3cccc4c3OCCO4)c(N)c2cc1C(C)O (stereo not given)	> 100 µM	> 100	> 100 µM	> 100 µM	13.8 µM	> 100	> 100		3.58 µM	4.97	5.65 µM	8.31	> 100	2.11	> 100	5.35 µM	2.96 µM	13.7	3.5	
CCOC(=O)C(c1ccsc1)P(=O)(OCC)OCC (stereo not given)	66.4 µM	> 100	30.1 µM	52 µM	30.2 µM	33.8		60.8												
Cc1nc2ccccc2c(/C=C/c2ccc(C(F)(F)F)cc2)c1C(=O)/C=C/c1ccccc1	2.57 µM	5.79	3.01 µM	3.16 µM	3.13 µM	3.29	> 100	3.02	1.13 µM	0.508	1.54 µM	1.6	3.1			1.64 µM	1.72 µM	1.57	0.675	1.6 µM

SMILES	TGI [1]	TGI [2] [µM]	TGI [3]	TGI [4]	TGI [5]	TGI [6] [µM]	TGI [7] [µM]	TGI [8] [µM]	GI50 [1]	GI50 [2] [µM]	GI50 [3]	GI50 [9] [µM]	TGI [9] [µM]	GI50 [10] [µM]	TGI [10] [µM]	GI50 [4]	GI50 [5]	GI50 [6] [µM]	GI50 [7] [µM]	GI50 [8]
C=CCC(NCc1ccccc1)c1cn(C(=O)OCC)c2ccccc12 (stereo not given)	> 100 µM	38.1	60.9 µM	64.6 µM	18.8 µM	28.3	42.1		> 100 µM	10	25.7 µM	20.8	60.7	51.8	> 100	24.6 µM	5.47 µM	14	19.4	
CC(=O)CC(=O)Nc1ccc(OS(N)(=O)=O)cc1	> 100 µM	> 100	> 100 µM	> 100 µM	> 100 µM	> 100	> 100	> 100												
CCOC(=O)CCC(NC(=O)c1ccc(Oc2nc3cc(N)cc(N)c3nc2-c2ccccc2)cc1)C(=O)OCC (stereo not given)	> 100 µM	> 100		87.1 µM	> 100 µM		> 100	35.2	96.2 µM	39		62.2	> 100	53.6	> 100	36.6 µM	34 µM		12.4	18.5 µM
NNC(=S)N/N=C(\c1nc2ccc(Cl)cc2[nH]c1=O)C(O)c1cccc([N+](=O)[O-])c1 (stereo not given)	> 100 µM	> 100	> 100 µM	> 55.8 µM	> 47.5 µM	> 100	> 100	> 100												
CN1C=C(C(N)=O)Cc2ccsc21	> 100 µM	> 100	> 100 µM	> 100 µM	> 100 µM	> 100	> 100	> 100												
CC[C@@]1(O)C(=O)OCc2c1cc1n(c2=O)Cc2cc3c(N)c(OC)ccc3nc2-1	0.111 µM	0.0711	0.126 µM	0.037 µM	0.0932 µM	0.373	0.0409	4.05	0.013 µM	< 0.01	0.0124 µM					< 0.01 µM	0.0139 µM	0.155	< 0.01	0.236 µM
N/N=C1\C(=O)N(c2ccc(Cl)c(Cl)c2)C(=O)C1C(=O)Nc1ccc(Cl)c(Cl)c1 (stereo not given)	> 100 µM	> 100	> 100 µM	> 100 µM	> 100 µM	> 100	> 100	> 100												
O=[N+]([O-])C(=C1c2ccccc2-c2ccccc21)[N+](=O)[O-]	> 100 µM	> 100	> 100 µM	> 100 µM	> 100 µM	> 100	> 100													
CCCCCCCCCCCCNC(=S)OCCCC	> 100 µM	52.4	> 100 µM	> 100 µM	> 100 µM	> 100	> 100	> 100												
O=C1CC2=CCCC2O1 (stereo not given)	> 100 µM	> 100	> 100 µM	> 100 µM	> 100 µM	> 100	> 100	> 100												
COc1cc(Br)c(C=Nc2cccc3ccc(OS(=O)(=O)c4ccc([N+](=O)[O-])cc4)cc23)cc1OC	> 100 µM	> 100	> 100 µM	> 100 µM	> 100 µM	> 100	> 100	> 100												
Cc1ncc2c(n1)CCC1=C2OS(=O)(=O)CC1N(C)C (stereo not given)	> 100 µM	> 100	> 100 µM	> 100 µM	> 100 µM		> 100						> 100		> 100					
COc1ccc(-c2cc(-c3ccco3)c(C#N)c(=O)n2C2OC(COC(C)=O)C(OC(C)=O)C(OC(C)=O)C2OC(C)=O)cc1 (stereo not given)	> 100 µM and 81 µM	> 100	> 100 µM and 55.2 µM	> 100 µM and 79.2 µM	> 100 µM and 23.9 µM	> 100	> 100	> 100	35.8 µM and 8.76 µM		> 100 µM and 18.9 µM					> 100 µM and 23 µM	> 100 µM and 11.7 µM			> 100 µM and 25 µM
CC(C)CC1CC2C(=O)N(c3ccccc3)C(=O)C2c2[nH]c3ccccc3c21 (stereo not given)	> 100 µM	> 58.7	> 43.8 µM	47.8 µM	99.4 µM	> 31.6	> 56.6	37												
CC1(C)CCOC(Sc2ccccc2)C1 (stereo not given)	> 100 µM	> 100	> 100 µM	> 100 µM		> 100	> 100													
COc1cc(/C=C2\CC3C4CC=C5C[C@@H](N6CCCC6)CC[C@]5(C)C4CC[C@]3(C)[C@H]2OC(C)=O)ccc1OCCCn1ccnc1 (stereo not given in full)	> 19.2 µM	> 15.4	9.77 µM	1.08 µM	0.459 µM	0.568	3.91		0.531 µM	0.206	1.24 µM	0.17	1.49	1.14	> 21.8	0.435 µM	0.196 µM	0.178	1.22	
COC(=O)N1C=CC2=C(C)C3Nc4ccccc4C3C(C)=C2C1 (stereo not given)	11.6 µM	12.3		12.6 µM	17.2 µM	11.9	15.9	13.1												
COc1ccc(/C(=N/O)c2cc(F)c(F)c(OC)c2F)cc1O	> 100 µM	30	> 100 µM	> 100 µM	5.27 µM	> 100	35.2		0.402 µM	0.43	0.832 µM	1.88	> 100	0.329	> 100	0.502 µM	0.427 µM	2.01	0.528	
CC1Nc2ccccc2NC1C=C(C#N)C#N (stereo not given)	42.5 µM	24.6	30.1 µM	43.7 µM	26 µM	32.8	7.97	32.3												
